In patent US8975246B2, “Bile acid or bile salt fatty acid conjugates” (Galmed Research and Development Ltd., priority 2001, dated 2015):

Assays:
Type in all cases: in vivo
human patients [1] = assay: Human study: change in glucose; design: Change from Baseline in Glucose, Mean / Change from Baseline in Glucose, Median / Change from Baseline in Glucose, Max: unit not given here
Experimental: (§1) The effects of BAFACs on disorders associated with Fatty liver, insulin resistance and altered glucose metabolism were tested on 60 human patients. Experiments were subdivided to 2 dosage regimens: Aramchol 300 mg daily (high dose) and 100 mg daily (low dose) respectively for a total period time of 3 months. The Aramchol:placebo ratio is of 2:1 for the low dose arm, and 1:1 for the high dose arms.
(§2) The study period included a 3 month treatment period with Aramchol low dose, or Aramchol high dose, or placebo, and a one month follow-up period. Aramchol was given daily orally. During the treatment period, all patients attended periodic […] (at first month) and subsequently monthly study-center visits in order to assess safety and efficacy of the treatment.
(§3) The results are shown using two known in the art principle statistical evaluation on, Intention-To-Treat (ITT) and Per Protocol (PP) populations. The ITT principle asserts that the effect of a treatment policy can be best assessed by evaluation on the basis of the intention to treat a subject (i.e. the planned treatment regimen) rather than the actual treatment given. It has the consequence that subjects allocated to a treatment group should be followed up, assessed and analyzed as members of that group irrespective of their compliance to the planned course of treatment. […] Compliance covers such considerations as exposure to treatment, availability of measurements and absence of major protocol violations.

Wistar male rats = assay: Fasting blood glucose, rats on regular or high fat diet; details: 4 weeks
Experimental: The effects of BAFACs on fasting blood glucose were tested in 3 animal species: Hamsters, Rats and Mice. The animals were kept on regular or high fat diets (as specified). In each group half of the animals received a daily BAFAC dose (150 mg/kg) dispersed in 0.5 ml of saline by gavage. The other half received similarly, by gavage, an equal volume of saline only. All animals were kept on a 12 hr day/night cycle at 22° C. throughout the experiment. They had access to water ad libidum.
Wistar male rats 4 weeks old (100-120 gm) were fed a regular chow diet or a high fat diet enriched with lard (10%), cholesterol (2.5%) and cholic acid (0.5%) (w/w). Blood and organ samples were obtained after sacrifice (in the fasting state) after 4 weeks of the trial. Half of the animals in each group were given BAFAC 150 mg/kg; the others were given an equal volume of saline. There were 7 rats in the control and test groups on a regular diet and 6 rats in each group given a high fat diet.
The hamsters and rats on the high fat diets developed fatty liver (confirmed by chemical measurement of liver fat), a high fasting blood glucose, and represented models of NIDDM.
ICR male mice, 4 weeks old (approx. 20 gm) were fed a regular diet. Streptozotocin 200 mg/kg was injected i.p. on the first day of the experiment. (This induced damage to the islet cells of the pancreas and simulated IDDM). […]

Inbred C57J/L mice = assay: Liver lipid/protein ratio, mice on high fat lithogenic diet; details: BAFAC 150 mg/Kg daily by gavage, 5 weeks
Experimental: Inbred C57J/L mice, 4 weeks old and weighing approx. 20 gm (Jackson Lab. Maine, USA) were used. They were fed for 5 weeks a high fat lithogenic diet consisting of: Cholesterol 1%, Cholic Acid 0.5%, lard 10%, butter 6%, palmitic acid 1.2% and corn oil 2% added (w/w) to their regular diet. In addition to the diet the animals were given daily, by gavage, either a BAFAC (150 mg/Kg) suspended in saline or an equal volume of saline only. The BAFACs were conjugates of cholic acid (at position 3) with either Palmitic Acid (C-16) or Arachidic Acid (C-20) or Behenic Acid (C-22) using an amide bond. The controls (n=5) received saline, the test animals received either the C-16 conjugate (n=5), the C-20 conjugate (n=5) or the C-22 conjugate (n=3). After 5 weeks, following an overnight fast, the animals were anesthetized using ketamine, the liver was removed, and the animals were sacrificed by ketamine overdose. A 0.5 gm sample of liver was homogenized in 5 ml of buffered saline. Liver lipids were extracted from the homogenate by the Folch method using chloroform:methanol (2:1, vol/vol). Half a ml of the homogenate were extracted in 5 ml of the Folch solution. After evaporation of the solvent the lipids were weighed and reevaporated several times until constant weight was obtained. The proteins were quantified in another aliquot of the homogenate according to the method of Bradford. (Bradford M. M., Annal Biochem. 1976, 72:248).
The lipid protein ratio (mg/mg) was calculated. The results for each group are given as means (+St. Dev.) The group values were: […]

human patients [2] = assay: Human study: change in insulin; details: for Change from Baseline in Insulin, Max / Change from Baseline in Insulin, Mean / Change from Baseline in Insulin, Median / Change from Baseline in Insulin, Min: ITT
Experimental: as §1, §2, §3

[3] = Aramchol 100 mg/d, Visit 3, ITT
[4] = Aramchol 100 mg/d, Visit 4, ITT
[5] = Aramchol 100 mg/d, Visit 5, ITT
[6] = Aramchol 100 mg/d, Visit 6, ITT
[7] = Aramchol 100 mg/d, Visit 7, ITT
[8] = Aramchol 300 mg/d, Visit 3, ITT
[9] = Aramchol 300 mg/d, Visit 4, ITT
[10] = Aramchol 300 mg/d, Visit 5, ITT
[11] = Aramchol 300 mg/d, Visit 6, ITT
[12] = Aramchol 300 mg/d, Visit 7, ITT

In the case of CCCCCCCCCCCCCCCCCCCC(=O)N[C@H]1CC[C@@]2(C)[C@@H](C1)C[C@@H](O)[C@@H]1[C@@H]2C[C@H](O)[C@]2(C)[C@@H]([C@H](C)CCC(=O)O)CC[C@@H]12 [Aramchol, 3β-arachidylamido-7α,12α-dihydroxy-5β-cholan-24-oic acid], the “Change from Baseline in Glucose, Max” value (human patients [1]; [3]) is reported as 17.0, the “Change from Baseline in Glucose, Mean” value (human patients [1]; [3]) is reported as −2.0 and the “Change from Baseline in Glucose, Median” value (human patients [1]; [3]) is reported as 0.0. For the same compound, the “Change from Baseline in Glucose, Min” value (human patients [1]; [3]) was −38.0, the “Change from Baseline in Glucose, Max” value (human patients [1]; [4]) was 16.0 and the “Change from Baseline in Glucose, Mean” value (human patients [1]; [4]) was −2.2. For the same compound, the “Change from Baseline in Glucose, Median” value (human patients [1]; [4]) was 1.0, the “Change from Baseline in Glucose, Min” value (human patients [1]; [4]) was −33.0 and the “Change from Baseline in Glucose, Max” value (human patients [1]; [5]) was 21.0. For the same compound, the “Change from Baseline in Glucose, Mean” value (human patients [1]; [5]) was −1.0, the “Change from Baseline in Glucose, Median” value (human patients [1]; [5]) was 0.5 and the “Change from Baseline in Glucose, Min” value (human patients [1]; [5]) was −30.0. The “Change from Baseline in Glucose, Max” value (human patients [1]; [6]) was 39.0, the “Change from Baseline in Glucose, Mean” value (human patients [1]; [6]) was −1.1 and the “Change from Baseline in Glucose, Median” value (human patients [1]; [6]) was −2.0. The “Change from Baseline in Glucose, Min” value (human patients [1]; [6]) was −32.0, the “Change from Baseline in Glucose, Max” value (human patients [1]; [7]) was 23.0 and the “Change from Baseline in Glucose, Mean” value (human patients [1]; [7]) was 0.8. For the same compound, the “Change from Baseline in Glucose, Median” value (human patients [1]; [7]) was −1.0, the “Change from Baseline in Glucose, Min” value (human patients [1]; [7]) was −41.0 and the “Change from Baseline in Glucose, Max” value (human patients [1]; [8]) was 19.0. For the same compound, the “Change from Baseline in Glucose, Mean” value (human patients [1]; [8]) was −1.3, the “Change from Baseline in Glucose, Median” value (human patients [1]; [8]) was 1.0 and the “Change from Baseline in Glucose, Min” value (human patients [1]; [8]) was −32.0. For the same compound, the “Change from Baseline in Glucose, Max” value (human patients [1]; [9]) was 16.0, the “Change from Baseline in Glucose, Mean” value (human patients [1]; [9]) was −2.4 and the “Change from Baseline in Glucose, Median” value (human patients [1]; [9]) was −1.5. The “Change from Baseline in Glucose, Min” value (human patients [1]; [9]) was −24.0, the “Change from Baseline in Glucose, Max” value (human patients [1]; [10]) was 18.0 and the “Change from Baseline in Glucose, Mean” value (human patients [1]; [10]) was −3.3. For the same compound, the “Change from Baseline in Glucose, Median” value (human patients [1]; [10]) was −5.0, the “Change from Baseline in Glucose, Min” value (human patients [1]; [10]) was −46.0 and the “Change from Baseline in Glucose, Max” value (human patients [1]; [11]) was 13.0. For the same compound, the “Change from Baseline in Glucose, Mean” value (human patients [1]; [11]) was −2.0, the “Change from Baseline in Glucose, Median” value (human patients [1]; [11]) was −2.5 and the “Change from Baseline in Glucose, Min” value (human patients [1]; [11]) was −22.0. The “Change from Baseline in Glucose, Max” value (human patients [1]; [12]) was 82.0, the “Change from Baseline in Glucose, Mean” value (human patients [1]; [12]) was 3.8 and the “Change from Baseline in Glucose, Median” value (human patients [1]; [12]) was 3.0. The “Change from Baseline in Glucose, Min” value (human patients [1]; [12]) was −22.0, the “glucose levels (in words)” value (human patients [1]; Aramchol 300 mg/d, tested subjects, Table 7) was “remarkably reduces glucose levels” and the fasting blood glucose (Wistar male rats; high fat diet (fatty liver), BAFAC 150 mg/kg by gavage, vs saline) was “markedly reduced”. For the same compound, the blood glucose (Wistar male rats; normal (regular) diet, no hyperglycemia or fatty liver, BAFAC 150 mg/kg) was “no effect”, the “lipid protein ratio in liver, mean (+St. Dev.)” value (Inbred C57J/L mice) was 1.44 ± 1.18 mg/mg and the “Change from Baseline in Insulin, Max” value (human patients [2]; Aramchol 100 mg/d oral) was 38.9. The “Change from Baseline in Insulin, Mean” value (human patients [2]; Aramchol 100 mg/d oral) was 5.6, the “Change from Baseline in Insulin, Median” value (human patients [2]; Aramchol 100 mg/d oral) was 2.5 and the “Change from Baseline in Insulin, Min” value (human patients [2]; Aramchol 100 mg/d oral) was −7.4. The “Change from Baseline in Insulin, Max” value (human patients [2]; Aramchol 300 mg/d oral) was 9.1, the “Change from Baseline in Insulin, Mean” value (human patients [2]; Aramchol 300 mg/d oral) was −21.1 and the “Change from Baseline in Insulin, Median” value (human patients [2]; Aramchol 300 mg/d oral) was 0.9. The “Change from Baseline in Insulin, Min” value (human patients [2]; Aramchol 300 mg/d oral) was −367.5 and the “basal insulin levels (in words)” value (human patients [2]; tested subjects, Table 8) was “reduces basal insulin levels”.
